Results: the kinase profiling compilation of Christmann-Franck et al. (2016)

How the values were obtained:
Assay in all cases: KINOMEscan competition binding
Conditions in all cases: compound 10.0 µM
[1] = tested on: EGFR (human), P00533 [G719C]
PAK4 (human) = PAK4 (human) (UniProt O96013)
TXK (human) = TXK (human) (UniProt P42681)
MAPK3 (human) = MAPK3 (human) (UniProt P27361)
TGFBR2 (human) = TGFBR2 (human) (UniProt P37173)
FRK (human) = FRK (human) (UniProt P42685)
MUSK (human) = MUSK (human) (UniProt O15146)
BLK (human) = BLK (human) (UniProt P51451)
ULK1 (human) = ULK1 (human) (UniProt O75385)
MAP3K2 (human) = MAP3K2 (human) (UniProt Q9Y2U5)
MYLK4 (human) = MYLK4 (human) (UniProt Q86YV6)
Sequence of MYLK4 (human) (Q86YV6 whole entry, looked up): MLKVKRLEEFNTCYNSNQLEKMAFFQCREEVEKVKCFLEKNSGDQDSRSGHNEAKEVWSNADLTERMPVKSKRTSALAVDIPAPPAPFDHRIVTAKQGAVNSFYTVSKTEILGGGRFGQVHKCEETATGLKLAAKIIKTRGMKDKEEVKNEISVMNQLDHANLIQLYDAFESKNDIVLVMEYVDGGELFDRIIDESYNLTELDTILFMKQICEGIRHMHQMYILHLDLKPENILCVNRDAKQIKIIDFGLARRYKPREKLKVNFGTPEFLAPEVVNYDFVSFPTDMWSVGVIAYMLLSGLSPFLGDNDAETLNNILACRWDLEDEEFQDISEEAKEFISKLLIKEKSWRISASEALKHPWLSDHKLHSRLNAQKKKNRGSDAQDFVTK

PI4KB (human) = PI4KB (human) (UniProt Q9UBF8)
ICK (human) = ICK (human) (UniProt Q9UPZ9)
[2] = tested on: PIK3CA (human), P42336 [H1047L]
MAP4K4 (human) = MAP4K4 (human) (UniProt O95819)
STK10 (human) = STK10 (human) (UniProt O94804)
MAST1 (human) = MAST1 (human) (UniProt Q9Y2H9)
RPS6KA2 KD2 (human) = RPS6KA2 KD2 (human) (UniProt Q15349)
FGFR2 (human) = FGFR2 (human) (UniProt P21802)
FGR (human) = FGR (human) (UniProt P09769)
Sequence of FGR (human) (P09769 whole entry, looked up): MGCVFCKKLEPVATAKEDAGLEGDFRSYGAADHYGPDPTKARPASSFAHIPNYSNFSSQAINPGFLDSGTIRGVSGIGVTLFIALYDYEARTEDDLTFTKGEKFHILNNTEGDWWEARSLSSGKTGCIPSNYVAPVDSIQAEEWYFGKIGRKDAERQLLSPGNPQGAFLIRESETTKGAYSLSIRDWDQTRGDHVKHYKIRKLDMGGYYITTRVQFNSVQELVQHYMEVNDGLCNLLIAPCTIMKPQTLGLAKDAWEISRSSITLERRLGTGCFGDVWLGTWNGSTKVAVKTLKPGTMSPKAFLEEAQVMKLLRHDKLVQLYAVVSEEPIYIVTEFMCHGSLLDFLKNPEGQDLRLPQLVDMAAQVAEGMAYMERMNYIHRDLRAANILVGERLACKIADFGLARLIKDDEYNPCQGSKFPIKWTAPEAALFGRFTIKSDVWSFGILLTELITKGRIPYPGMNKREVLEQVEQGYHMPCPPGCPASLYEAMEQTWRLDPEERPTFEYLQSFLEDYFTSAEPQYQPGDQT

PTK2B (human) = PTK2B (human) (UniProt Q14289)
Sequence of PTK2B (human) (Q14289 whole entry, looked up): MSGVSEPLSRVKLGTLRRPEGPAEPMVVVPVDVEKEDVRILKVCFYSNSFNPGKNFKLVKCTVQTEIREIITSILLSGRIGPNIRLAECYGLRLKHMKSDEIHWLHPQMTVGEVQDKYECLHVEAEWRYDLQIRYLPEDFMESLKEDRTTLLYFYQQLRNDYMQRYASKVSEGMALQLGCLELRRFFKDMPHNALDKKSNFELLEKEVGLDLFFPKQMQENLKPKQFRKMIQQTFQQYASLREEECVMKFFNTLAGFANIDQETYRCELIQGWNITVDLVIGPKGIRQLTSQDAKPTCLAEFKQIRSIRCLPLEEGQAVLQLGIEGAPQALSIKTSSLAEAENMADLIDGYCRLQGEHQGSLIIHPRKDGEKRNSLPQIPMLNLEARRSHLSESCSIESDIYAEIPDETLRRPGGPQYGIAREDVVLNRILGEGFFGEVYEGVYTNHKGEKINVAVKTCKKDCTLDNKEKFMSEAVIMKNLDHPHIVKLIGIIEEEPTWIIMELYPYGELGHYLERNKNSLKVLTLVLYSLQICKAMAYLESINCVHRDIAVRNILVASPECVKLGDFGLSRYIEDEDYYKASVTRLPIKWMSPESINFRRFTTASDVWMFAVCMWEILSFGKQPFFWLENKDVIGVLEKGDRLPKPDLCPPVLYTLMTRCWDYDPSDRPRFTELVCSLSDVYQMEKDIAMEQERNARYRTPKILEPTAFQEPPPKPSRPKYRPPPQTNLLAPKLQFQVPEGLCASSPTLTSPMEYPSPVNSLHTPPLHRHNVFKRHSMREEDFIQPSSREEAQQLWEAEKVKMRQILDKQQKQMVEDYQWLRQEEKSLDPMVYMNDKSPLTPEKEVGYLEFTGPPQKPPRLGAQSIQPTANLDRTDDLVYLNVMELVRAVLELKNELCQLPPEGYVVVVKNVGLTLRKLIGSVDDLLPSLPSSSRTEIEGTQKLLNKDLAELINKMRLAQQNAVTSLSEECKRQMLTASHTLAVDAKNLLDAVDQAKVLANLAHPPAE

MERTK (human) = MERTK (human) (UniProt Q12866)
SRMS (human) = SRMS (human) (UniProt Q9H3Y6)
ERBB2 (human) = ERBB2 (human) (UniProt P04626)
Sequence of ERBB2 (human) (P04626 whole entry, looked up): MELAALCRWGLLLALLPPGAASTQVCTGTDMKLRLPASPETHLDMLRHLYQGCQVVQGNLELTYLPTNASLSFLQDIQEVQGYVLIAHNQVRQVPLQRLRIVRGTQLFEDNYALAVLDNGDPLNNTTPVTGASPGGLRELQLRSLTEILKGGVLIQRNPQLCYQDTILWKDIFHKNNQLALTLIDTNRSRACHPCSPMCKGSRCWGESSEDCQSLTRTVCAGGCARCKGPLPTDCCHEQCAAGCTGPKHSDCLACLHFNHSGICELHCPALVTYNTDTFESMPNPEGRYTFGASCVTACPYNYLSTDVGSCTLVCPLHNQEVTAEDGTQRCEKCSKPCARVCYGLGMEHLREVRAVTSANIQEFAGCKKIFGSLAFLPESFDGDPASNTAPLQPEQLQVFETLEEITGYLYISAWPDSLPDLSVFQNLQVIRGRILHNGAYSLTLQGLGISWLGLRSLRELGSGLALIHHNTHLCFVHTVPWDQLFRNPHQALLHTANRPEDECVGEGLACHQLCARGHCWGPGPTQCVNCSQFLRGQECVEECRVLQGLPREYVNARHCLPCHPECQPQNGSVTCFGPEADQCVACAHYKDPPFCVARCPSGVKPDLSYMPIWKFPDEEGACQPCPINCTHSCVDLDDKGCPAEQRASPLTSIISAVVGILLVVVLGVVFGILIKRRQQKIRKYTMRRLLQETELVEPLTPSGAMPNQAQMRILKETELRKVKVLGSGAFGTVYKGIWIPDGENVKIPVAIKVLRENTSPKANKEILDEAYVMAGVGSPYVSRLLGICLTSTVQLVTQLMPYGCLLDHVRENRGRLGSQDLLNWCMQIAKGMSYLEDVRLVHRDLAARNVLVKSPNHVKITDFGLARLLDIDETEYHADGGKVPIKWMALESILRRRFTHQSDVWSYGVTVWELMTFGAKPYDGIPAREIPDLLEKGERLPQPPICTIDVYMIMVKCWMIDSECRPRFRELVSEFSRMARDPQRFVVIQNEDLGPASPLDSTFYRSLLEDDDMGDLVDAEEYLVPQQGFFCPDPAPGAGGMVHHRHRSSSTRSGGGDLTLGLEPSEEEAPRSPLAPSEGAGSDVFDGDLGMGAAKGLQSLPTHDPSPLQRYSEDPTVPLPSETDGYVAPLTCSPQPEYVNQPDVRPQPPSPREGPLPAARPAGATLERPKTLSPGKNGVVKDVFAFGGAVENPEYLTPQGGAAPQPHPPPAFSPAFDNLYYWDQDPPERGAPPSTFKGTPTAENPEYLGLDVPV

CAMK4 (human) = CAMK4 (human) (UniProt Q16566)
TGFBR1 (human) = TGFBR1 (human) (UniProt P36897)
ROCK2 (human) = ROCK2 (human) (UniProt O75116)
MYO3B (human) = MYO3B (human) (UniProt Q8WXR4)
Sequence of MYO3B (human) (Q8WXR4 whole entry, looked up): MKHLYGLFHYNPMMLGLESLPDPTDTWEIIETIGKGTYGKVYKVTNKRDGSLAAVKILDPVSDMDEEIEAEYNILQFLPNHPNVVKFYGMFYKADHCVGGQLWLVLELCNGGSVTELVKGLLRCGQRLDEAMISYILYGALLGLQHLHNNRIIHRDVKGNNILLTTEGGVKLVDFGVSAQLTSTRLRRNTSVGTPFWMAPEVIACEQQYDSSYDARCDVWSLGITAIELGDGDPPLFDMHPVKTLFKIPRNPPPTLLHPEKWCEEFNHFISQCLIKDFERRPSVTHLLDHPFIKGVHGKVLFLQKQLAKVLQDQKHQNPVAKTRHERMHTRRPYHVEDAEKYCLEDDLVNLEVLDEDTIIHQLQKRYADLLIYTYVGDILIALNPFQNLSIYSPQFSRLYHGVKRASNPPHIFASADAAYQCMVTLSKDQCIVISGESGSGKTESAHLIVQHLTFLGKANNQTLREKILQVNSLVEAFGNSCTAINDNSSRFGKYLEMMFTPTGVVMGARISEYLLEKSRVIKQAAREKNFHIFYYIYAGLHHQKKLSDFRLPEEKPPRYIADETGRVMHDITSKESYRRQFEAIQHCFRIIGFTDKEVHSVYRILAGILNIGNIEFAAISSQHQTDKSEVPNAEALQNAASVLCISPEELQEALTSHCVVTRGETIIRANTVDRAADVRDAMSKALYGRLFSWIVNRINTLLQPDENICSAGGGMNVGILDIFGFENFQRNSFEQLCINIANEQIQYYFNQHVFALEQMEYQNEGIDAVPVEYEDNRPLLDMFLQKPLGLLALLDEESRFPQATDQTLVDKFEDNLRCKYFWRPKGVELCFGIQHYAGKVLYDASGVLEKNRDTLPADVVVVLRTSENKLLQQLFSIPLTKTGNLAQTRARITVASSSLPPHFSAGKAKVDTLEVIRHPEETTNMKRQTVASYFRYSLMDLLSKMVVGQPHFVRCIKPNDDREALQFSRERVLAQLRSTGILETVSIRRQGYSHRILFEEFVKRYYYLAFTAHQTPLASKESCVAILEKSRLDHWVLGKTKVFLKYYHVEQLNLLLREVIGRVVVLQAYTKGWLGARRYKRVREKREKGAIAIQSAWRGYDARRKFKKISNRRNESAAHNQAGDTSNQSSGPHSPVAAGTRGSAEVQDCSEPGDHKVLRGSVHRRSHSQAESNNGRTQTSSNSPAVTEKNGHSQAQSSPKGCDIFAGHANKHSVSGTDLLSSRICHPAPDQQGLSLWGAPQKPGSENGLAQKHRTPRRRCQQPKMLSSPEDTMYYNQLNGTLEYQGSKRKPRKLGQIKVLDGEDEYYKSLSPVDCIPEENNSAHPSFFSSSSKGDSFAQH

IGF1R (human) = IGF1R (human) (UniProt P08069)
TAOK1 (human) = TAOK1 (human) (UniProt Q7L7X3)
GRK7 (human) = GRK7 (human) (UniProt Q8WTQ7)
MYLK (human) = MYLK (human) (UniProt Q15746)
TYRO3 (human) = TYRO3 (human) (UniProt Q06418)
PIM2 (human) = PIM2 (human) (UniProt Q9P1W9)
Sequence of PIM2 (human) (Q9P1W9 whole entry, looked up): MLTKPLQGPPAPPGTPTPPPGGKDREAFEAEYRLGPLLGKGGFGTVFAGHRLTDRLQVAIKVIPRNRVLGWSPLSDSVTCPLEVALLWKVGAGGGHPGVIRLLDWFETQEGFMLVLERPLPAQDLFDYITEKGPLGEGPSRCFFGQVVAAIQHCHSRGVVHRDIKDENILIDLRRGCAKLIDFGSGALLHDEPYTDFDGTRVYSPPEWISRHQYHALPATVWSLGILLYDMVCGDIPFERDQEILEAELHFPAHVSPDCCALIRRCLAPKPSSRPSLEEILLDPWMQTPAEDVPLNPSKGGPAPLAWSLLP

MST1R (human) = MST1R (human) (UniProt Q04912)
STK38 (human) = STK38 (human) (UniProt Q15208)
NEK2 (human) = NEK2 (human) (UniProt P51955)

Row | Structure (SMILES) | kinase still bound, per cent of control [1] | kinase still bound, per cent of control (PAK4 (human)) | kinase still bound, per cent of control (TXK (human)) | kinase still bound, per cent of control (MAPK3 (human)) | kinase still bound, per cent of control (TGFBR2 (human)) | kinase still bound, per cent of control (FRK (human)) | kinase still bound, per cent of control (MUSK (human)) | kinase still bound, per cent of control (BLK (human)) | kinase still bound, per cent of control (ULK1 (human)) | kinase still bound, per cent of control (MYLK4 (human)) | kinase still bound, per cent of control (MAP4K4 (human)) | kinase still bound, per cent of control (STK10 (human)) | kinase still bound, per cent of control (RPS6KA2 KD2 (human)) | kinase still bound, per cent of control (FGFR2 (human)) | kinase still bound, per cent of control (FGR (human)) | kinase still bound, per cent of control (PTK2B (human)) | kinase still bound, per cent of control (MERTK (human)) | kinase still bound, per cent of control (SRMS (human)) | kinase still bound, per cent of control (ERBB2 (human)) | kinase still bound, per cent of control (CAMK4 (human)) | other results
1 | Cc1cn(-c2cc(C(=O)Nc3ccc(C)c(NC(=O)c4ccno4)c3)cc(C(F)(F)F)c2)cn1 | 100% | 100% | 12% | 100% | 100% | 0.85% | 100% | 15% | 100% | 100% | 100% | 100% | 100% | 100% | 23% | 100% | 100% | 26% | 100% | 100% | kinase still bound, per cent of control (MAP3K2 (human)): 100%; kinase still bound, per cent of control (PI4KB (human)): 100%; kinase still bound, per cent of control (ICK (human)): 100%; kinase still bound, per cent of control [2]: 100%; kinase still bound, per cent of control (MAST1 (human)): 100%; kinase still bound, per cent of control (TGFBR1 (human)): 100%; kinase still bound, per cent of control (ROCK2 (human)): 100%; kinase still bound, per cent of control (MYO3B (human)): 100%; kinase still bound, per cent of control (IGF1R (human)): 100%; kinase still bound, per cent of control (TAOK1 (human)): 100%; kinase still bound, per cent of control (GRK7 (human)): 100%; kinase still bound, per cent of control (MYLK (human)): 100%; kinase still bound, per cent of control (TYRO3 (human)): 100%; kinase still bound, per cent of control (PIM2 (human)): 100%; kinase still bound, per cent of control (MST1R (human)): 100%; kinase still bound, per cent of control (STK38 (human)): 100%; kinase still bound, per cent of control (NEK2 (human)): 100%
2 | CCOc1cc(N2CCC(O)CC2)ccc1Nc1ncc2c(n1)N(C)c1ccccc1C(=O)N2C | 100% | 100% | 100% | 100% | 100% | 100% | 100% | 100% | 100% | 100% | 100% | 100% | 100% | 100% | 100% | 100% | 100% | 100% | 100% | 100% | kinase still bound, per cent of control (MAP3K2 (human)): 100%; kinase still bound, per cent of control (PI4KB (human)): 100%; kinase still bound, per cent of control (ICK (human)): 100%; kinase still bound, per cent of control [2]: 100%; kinase still bound, per cent of control (MAST1 (human)): 100%; kinase still bound, per cent of control (TGFBR1 (human)): 100%; kinase still bound, per cent of control (ROCK2 (human)): 100%; kinase still bound, per cent of control (MYO3B (human)): 100%; kinase still bound, per cent of control (IGF1R (human)): 100%; kinase still bound, per cent of control (TAOK1 (human)): 100%; kinase still bound, per cent of control (GRK7 (human)): 100%; kinase still bound, per cent of control (MYLK (human)): 100%; kinase still bound, per cent of control (TYRO3 (human)): 100%; kinase still bound, per cent of control (PIM2 (human)): 100%; kinase still bound, per cent of control (MST1R (human)): 100%; kinase still bound, per cent of control (STK38 (human)): 100%; kinase still bound, per cent of control (NEK2 (human)): 100%
3 | COc1cc(C)c(Sc2cnc(NC(=O)c3ccc(CNC(C)C(C)C)cc3)s2)cc1C(=O)N1CCN(C(C)=O)CC1 (centres undefined) | 100% | 100% | 100% | 100% | 100% | 100% | 0.2% | 100% | 25% | 100% | 100% | 13% | 100% | 100% | 100% | 100% | 3.2% | 100% | 100% | 100% | kinase still bound, per cent of control (TGFBR1 (human)): 100%; kinase still bound, per cent of control (ROCK2 (human)): 100%; kinase still bound, per cent of control (MYO3B (human)): 100%; kinase still bound, per cent of control (IGF1R (human)): 4.1%; kinase still bound, per cent of control (TAOK1 (human)): 16%; kinase still bound, per cent of control (MYLK (human)): 100%; kinase still bound, per cent of control (TYRO3 (human)): 100%; kinase still bound, per cent of control (PIM2 (human)): 100%; kinase still bound, per cent of control (MST1R (human)): 100%; kinase still bound, per cent of control (NEK2 (human)): 18%
